Experimental data as given in patent publication US20100136118A1, “CALCIUM ABSORPTION ENHANCER” (priority 2007, published 2010).
“Also recorded” adds a separate entry of the source.

Experiments:
Assay type in all cases: physicochemical
Details in all cases: organic acid calcium from egg shell mixture (A)
[1] = sustained release property in simulated gastric cavity (column, 0.1 N aqueous HCl solution)
Method: Subsequently, 0.1 N aqueous HCl solution simulating a gastric juice as a solvent was passed through this column and separated by a low-pressure chromatography system (Bio-Rad Laboratories, Inc., BioLogic LP Chromatography System) over time. The flow rate of the solvent during the separation was 1.0 mL/min. Then, the calcium ion concentration in each separated solution was measured using Calcium C-test Wako (Wako Pure Chemical Industries, Ltd., Cat. No. 272-21801). The concentration of the organic acid in each separated solution (lactic acid, acetic acid, and citric acid) was measured using F-Kit Lactic Acid, F-Kit Acetic Acid, and F-Kit Citric Acid (Roche Diagnostics K.K., Cat. Nos. 1112821, 148261, and 139076).
(§1) The amount of an eluted solvent (mL) and changes in the amount of calcium ions (integrated value) with elution of 0.1 N HCl were measured, and the amount of an eluted solvent (mL) and changes in the amount of each organic acid (integrated value) with elution of 0.1 N HCl were measured.
Using 0.1 N aqueous HCl solution as a solvent, the amount of solvent (mL) eluted in the simulated gastric cavity and changes in the amount of calcium ions (integrated value) with elution of the solvent were evaluated. […]

[2] = sustained release property in simulated gastric cavity (column, 0.05 N aqueous HCl solution, diluted gastric juice)
Method: as §1, with “0.05” for “0.1”, “measured. Among the obtained results, the measurement results regarding the amount of calcium ions (integrated value) are shown in FIG. 9.” for “measured.”
(§2) Furthermore, as a solvent, 0.05 N aqueous HCl solution was used instead of 0.1 N aqueous HCl solution to simulate a state in which gastric juice in an organism was diluted with drinking water. Except for this condition, the amount of solvent (mL) eluted in the simulated gastric cavity and changes in the amount of calcium ions (integrated value) with elution of the solvent were evaluated in the same manner as in Example 8.
(§3) Using 0.05 N aqueous HCl solution as a solvent, the amount of solvent (mL) eluted in the simulated gastric cavity and changes in the amount of calcium ions (integrated value) with elution of the solvent were evaluated. […]
as §3

[3] = sustained release property in simulated intestines (column, distilled water)
Method: as §1, with “distilled water” for “0.1 N HCl”, “measured. Among the obtained results, the measurement results regarding the amount of calcium ions (integrated value) are shown in FIG. 11.” for “measured.”
as §2, with “distilled water” for “0.05 N aqueous HCl solution”, “acid” for “juice in an organism”, “neutralized when a drink or a food was transported from the stomach to the duodenum.” for “diluted with drinking water.”
Using distilled water as a solvent, the amount of solvent (mL) eluted in the simulated gastric cavity and changes in the amount of calcium ions (integrated value) with elution of the solvent were evaluated. […]
Using distilled water as a solvent, the amount of solvent (mL) eluted in the simulated intestine and changes in the amount of calcium ions (integrated value) with elution of the solvent were evaluated. […]

Row | Compound | amount of each organic acid (integrated value) vs amount of eluted solvent [1] | amount of each organic acid (integrated value) vs amount of eluted solvent [2] | amount of each organic acid (integrated value) vs amount of eluted solvent [3]
1 | O=C([O-])CC(O)(CC(=O)[O-])C(=O)[O-].O=C([O-])CC(O)(CC(=O)[O-])C(=O)[O-].[Ca+2].[Ca+2].[Ca+2] [calcium citrate] | started gradually after the start of elution | gradually dissolved; also recorded: dissolved in virtually the same amount | gradually dissolved
2 | CC(O)C(=O)[O-].CC(O)C(=O)[O-].[Ca+2] (stereo not drawn) [calcium lactate] | dissolved first at the stage of the start of measurement | dissolved first | dissolved first at the stage of the start of measurement
